{"source": "PubChem BioAssay (NCI)", "experiment_in_all_cases": "inhibition of tumour cell growth, NCI panel, 48 h", "key": {"MOLT-4 leukemia": {"test_system": "MOLT-4 leukemia"}, "NCI-H226 lung": {"test_system": "NCI-H226 lung"}, "NCI-H23 lung": {"test_system": "NCI-H23 lung"}, "NCI-H460 lung": {"test_system": "NCI-H460 lung"}, "NCI-H522 lung": {"test_system": "NCI-H522 lung"}, "NCI/ADR-RES ovarian": {"test_system": "NCI/ADR-RES ovarian"}, "OVCAR-3 ovarian": {"test_system": "OVCAR-3 ovarian"}, "OVCAR-4 ovarian": {"test_system": "OVCAR-4 ovarian"}, "OVCAR-5 ovarian": {"test_system": "OVCAR-5 ovarian"}, "OVCAR-8 ovarian": {"test_system": "OVCAR-8 ovarian"}, "PC-3 prostate": {"test_system": "PC-3 prostate"}, "RPMI-8226 leukemia": {"test_system": "RPMI-8226 leukemia"}, "RXF 393 renal": {"test_system": "RXF 393 renal"}, "SF-268 CNS": {"test_system": "SF-268 CNS"}, "SF-295 CNS": {"test_system": "SF-295 CNS"}, "SF-539 CNS": {"test_system": "SF-539 CNS"}, "SK-MEL-28 melanoma": {"test_system": "SK-MEL-28 melanoma"}, "SK-MEL-5 melanoma": {"test_system": "SK-MEL-5 melanoma"}, "SK-OV-3 ovarian": {"test_system": "SK-OV-3 ovarian"}, "SN12C renal": {"test_system": "SN12C renal"}, "SNB-19 CNS": {"test_system": "SNB-19 CNS"}, "SR leukemia": {"test_system": "SR leukemia"}, "SW-620 colon": {"test_system": "SW-620 colon"}, "T-47D breast": {"test_system": "T-47D breast"}, "TK-10 renal": {"test_system": "TK-10 renal"}, "U251 CNS": {"test_system": "U251 CNS"}, "UACC-257 melanoma": {"test_system": "UACC-257 melanoma"}, "UACC-62 melanoma": {"test_system": "UACC-62 melanoma"}}, "note": "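Cultured in 96-well plates, cells were exposed to test compound for 48 hours across five concentrations. At the GI50, growth is halved. TGI denotes the concentration required for complete inhibition of growth.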", "data": [{"compound": "CC[C@]12C=CCN3CC[C@@]4(c5ccc(OC)cc5N(C)[C@H]4[C@@](O)(C(=O)OC)[C@@H]1OC(=O)CCC[P+](C1CCCCC1)(C1CCCCC1)C1CCCCC1)[C@@H]32", "values": [{"measurement": "TGI", "setting": "MOLT-4 leukemia", "result": 6.51, "unit": "µM"}, {"measurement": "GI50", "setting": "NCI-H226 lung", "result": 4.06, "unit": "µM"}, {"measurement": "TGI", "setting": "NCI-H226 lung", "result": 17.2, "unit": "µM"}, {"measurement": "GI50", "setting": "NCI-H23 lung", "result": 2.31, "unit": "µM"}, {"measurement": "TGI", "setting": "NCI-H23 lung", "result": 8.3, "unit": "µM"}, {"measurement": "GI50", "setting": "NCI-H460 lung", "result": 2.77, "unit": "µM"}, {"measurement": "TGI", "setting": "NCI-H460 lung", "result": 11.3, "unit": "µM"}, {"measurement": "GI50", "setting": "NCI-H522 lung", "result": 0.688, "unit": "µM"}, {"measurement": "TGI", "setting": "NCI-H522 lung", "result": 4.98, "unit": "µM"}, {"measurement": "GI50", "setting": "NCI/ADR-RES ovarian", "result": 35.6, "unit": "µM"}, {"measurement": "TGI", "setting": "NCI/ADR-RES ovarian", "result": "> 100", "unit": "µM"}, {"measurement": "GI50", "setting": "OVCAR-3 ovarian", "result": 1.74, "unit": "µM"}, {"measurement": "TGI", "setting": "OVCAR-3 ovarian", "result": 9.08, "unit": "µM"}, {"measurement": "GI50", "setting": "OVCAR-4 ovarian", "result": 2.39, "unit": "µM"}, {"measurement": "TGI", "setting": "OVCAR-4 ovarian", "result": 12.4, "unit": "µM"}, {"measurement": "GI50", "setting": "OVCAR-5 ovarian", "result": 3.19, "unit": "µM"}, {"measurement": "TGI", "setting": "OVCAR-5 ovarian", "result": 12, "unit": "µM"}, {"measurement": "GI50", "setting": "OVCAR-8 ovarian", "result": 2.97, "unit": "µM"}, {"measurement": "TGI", "setting": "OVCAR-8 ovarian", "result": 11.7, "unit": "µM"}, {"measurement": "GI50", "setting": "PC-3 prostate", "result": 1.71, "unit": "µM"}, {"measurement": "TGI", "setting": "PC-3 prostate", "result": 11.4, "unit": "µM"}, {"measurement": "GI50", "setting": "RPMI-8226 leukemia", "result": 0.383, "unit": "µM"}, {"measurement": "TGI", "setting": "RPMI-8226 leukemia", "result": 2.22, "unit": "µM"}, {"measurement": "GI50", "setting": "RXF 393 renal", "result": 1.47, "unit": "µM"}, {"measurement": "TGI", "setting": "RXF 393 renal", "result": 5.04, "unit": "µM"}, {"measurement": "GI50", "setting": "SF-268 CNS", "result": 3.23, "unit": "µM"}, {"measurement": "TGI", "setting": "SF-268 CNS", "result": 13, "unit": "µM"}, {"measurement": "GI50", "setting": "SF-295 CNS", "result": 4.41, "unit": "µM"}, {"measurement": "TGI", "setting": "SF-295 CNS", "result": 16.5, "unit": "µM"}, {"measurement": "GI50", "setting": "SF-539 CNS", "result": 2.94, "unit": "µM"}, {"measurement": "TGI", "setting": "SF-539 CNS", "result": 10.7, "unit": "µM"}, {"measurement": "GI50", "setting": "SK-MEL-28 melanoma", "result": 1.08, "unit": "µM"}, {"measurement": "TGI", "setting": "SK-MEL-28 melanoma", "result": 2.76, "unit": "µM"}, {"measurement": "GI50", "setting": "SK-MEL-5 melanoma", "result": 1.76, "unit": "µM"}, {"measurement": "TGI", "setting": "SK-MEL-5 melanoma", "result": 3.28, "unit": "µM"}, {"measurement": "GI50", "setting": "SK-OV-3 ovarian", "result": 2.59, "unit": "µM"}, {"measurement": "TGI", "setting": "SK-OV-3 ovarian", "result": 7.57, "unit": "µM"}, {"measurement": "GI50", "setting": "SN12C renal", "result": 2.89, "unit": "µM"}, {"measurement": "TGI", "setting": "SN12C renal", "result": 10.1, "unit": "µM"}, {"measurement": "GI50", "setting": "SNB-19 CNS", "result": 2.22, "unit": "µM"}, {"measurement": "TGI", "setting": "SNB-19 CNS", "result": 11.5, "unit": "µM"}, {"measurement": "GI50", "setting": "SR leukemia", "result": 1.35, "unit": "µM"}, {"measurement": "TGI", "setting": "SR leukemia", "result": 4.01, "unit": "µM"}, {"measurement": "GI50", "setting": "SW-620 colon", "result": 2.95, "unit": "µM"}, {"measurement": "TGI", "setting": "SW-620 colon", "result": 14.6, "unit": "µM"}, {"measurement": "GI50", "setting": "T-47D breast", "result": 1.32, "unit": "µM"}, {"measurement": "TGI", "setting": "T-47D breast", "result": 11.4, "unit": "µM"}, {"measurement": "GI50", "setting": "TK-10 renal", "result": 2.73, "unit": "µM"}, {"measurement": "TGI", "setting": "TK-10 renal", "result": 12.1, "unit": "µM"}, {"measurement": "GI50", "setting": "U251 CNS", "result": 0.746, "unit": "µM"}, {"measurement": "TGI", "setting": "U251 CNS", "result": 11.8, "unit": "µM"}, {"measurement": "GI50", "setting": "UACC-257 melanoma", "result": 1.26, "unit": "µM"}, {"measurement": "TGI", "setting": "UACC-257 melanoma", "result": 3.34, "unit": "µM"}, {"measurement": "GI50", "setting": "UACC-62 melanoma", "result": 1.41, "unit": "µM"}, {"measurement": "TGI", "setting": "UACC-62 melanoma", "result": 3.06, "unit": "µM"}]}]}
